Experimental findings from patent US9399646B2 (Genentech, Inc., priority 2010, dated 2016) are described below.

Test [1] concerns MCF-7 cells. Nature of the test: Breast cancer cell viability assay (CellTiter-Glo, 5 days). The conditions noted are these: 5 days' compound exposure; for IC50: Homo sapiens, MCF7, 120 h. Format: cell-based. In outline:
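MCF-7 cells, 320 per well in RPMI with 10% FBS and 20 mM HEPES, adhered overnight, then exposed 5 days to an eleven-point semilog dilution (final 0.3-0.000003 μM). CellTiter-Glo luminescence read; % viability = (sample − cell-free background)/(untreated − background) × 100.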

For test [2], the target named is T1, ER-α in MCF-7 cells (Homo sapiens, UniProt P03372).
T1 sequence (P03372 1-595): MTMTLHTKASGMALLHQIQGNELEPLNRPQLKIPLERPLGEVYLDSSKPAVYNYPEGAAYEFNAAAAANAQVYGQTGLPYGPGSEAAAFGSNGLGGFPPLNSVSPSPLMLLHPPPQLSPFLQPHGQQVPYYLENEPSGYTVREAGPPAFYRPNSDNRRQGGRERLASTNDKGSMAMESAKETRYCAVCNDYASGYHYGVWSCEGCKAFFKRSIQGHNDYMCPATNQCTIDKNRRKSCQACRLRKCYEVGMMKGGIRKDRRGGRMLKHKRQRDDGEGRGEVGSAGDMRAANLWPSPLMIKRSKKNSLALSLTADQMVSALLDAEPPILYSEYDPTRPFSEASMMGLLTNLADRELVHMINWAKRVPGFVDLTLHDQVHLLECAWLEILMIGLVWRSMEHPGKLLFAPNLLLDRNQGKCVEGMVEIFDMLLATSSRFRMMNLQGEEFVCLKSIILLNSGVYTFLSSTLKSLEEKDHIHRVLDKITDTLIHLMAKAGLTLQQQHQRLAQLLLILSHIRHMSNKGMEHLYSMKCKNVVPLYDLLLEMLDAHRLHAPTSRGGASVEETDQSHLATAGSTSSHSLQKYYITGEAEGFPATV
The experiment in a line: Breast cancer cell ER-α in cell western assay (SP1). The test is classed as cell-based. The arrangement: endogenous in cells; host or cells: MCF-7. The conditions noted are these: 4 or 24 hr post compound addition; for Emax: MCF7, SP1 antibody, read-out: ER-α In Cell Western Assay (SP1) Max Response; for DC50: SP1 antibody, read-out: ER-α In Cell Western Assay (SP1) IC50. Put shortly: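 Fixed cells were immunostained with SP1 anti-ER antibody; ER signal (800 nm) was normalized to DRAQ5 DNA signal (700 nm) and expressed as % of untreated cells.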

Some results are limits rather than exact numbers.

With `Cc1cscc1/C(CC(C)C)=C(\c1ccc(/C=C/C(=O)O)cc1)c1ccc2[nH]ncc2c1` [Compound 257, (E)-3-(4-((E)-1-(1H-Indazol-5-l)-4-methyl-2-(4-methylthiophen-3-yl)pent-1-en-1-yl)phenyl)acrylic acid], in test [1], the “MCF7 Viability Assay Max Response” value is “++ (++ = a single % value ≧ 40%)” and the IC50 (commonly the concentration that inhibits the measured activity by half) was at most 100 nM. Moreover, in test [2], the Emax was at least 40% and the DC50 was at most 100 nM.
Regarding `CC/C(=C(/c1ccc(/C=C/C(=O)O)cc1)c1ccc2[nH]ncc2c1)c1ccc2cn[nH]c2c1` [Compound 251, (E)-3-(4-((E)-1-(1H-Indazol-5-yl)-2-(1H-indazol-6-yl)but-1-en-1-yl)phenyl)acrylic acid], in test [1], the “MCF7 Viability Assay Max Response” value is reported as “++ (++ = a single % value ≧ 40%)” and the IC50 was over 100 nM. For the same compound, in test [2], the Emax was at least 40% and the DC50 is over 100 nM.
For the compound `CC/C(=C(/c1ccc(/C=C/C(=O)O)cc1)c1ccc2[nH]c(=O)oc2c1)c1ccccc1` [Compound 66, (E)-3-(4-((E)-1-(2-Oxo-2,3-dihydrobenzo[d]oxazol-6-yl)-2-phenylbut-1-en-1-yl)phenyl)acrylic acid], in test [1], the “MCF7 Viability Assay Max Response” value is “++ (++ = a single % value ≧ 40%)” and the IC50 was at most 100 nM. For the same compound, the Emax in test [2] was at least 40%.
In the case of `CC/C(=C(/c1ccc(/C=C/C(=O)O)cc1)c1ccc2[nH]ncc2c1)c1cnccc1C(F)(F)F` [Compound 207, (E)-3-(4-((E)-1-(1H-Indazol-5-yl)-2-(4-(trifluoromethyl)pyridin-3-yl)but-1-en-1-yl)phenyl)acrylic acid], in test [1], the “MCF7 Viability Assay Max Response” value is listed as “++ (++ = a single % value ≧ 40%)” and the half-maximal inhibitory concentration (IC50) is at most 100 nM. For the same compound, in test [2], the Emax is at least 40% and the DC50 was at most 100 nM.
For the compound `CC/C(=C(/c1ccc(/C=C/C(=O)O)cc1)c1ccc2[nH]ncc2c1)c1cccc(Oc2cccnc2)c1` [Compound 365, (E)-3-(4-((E)-1-(1H-Indazol-5-yl)-2-(3-(pyridin-3-yloxy)phenyl)but-1-en-1-yl)phenyl)acrylic acid], in test [1], the “MCF7 Viability Assay Max Response” value is recorded as “++ (++ = a single % value ≧ 40%)” and the half-inhibitory concentration (IC50) was at most 100 nM. In test [2], the Emax is at least 40% and the DC50 is at most 100 nM.
In the case of `CC/C(=C(/c1ccc(/C=C/C(=O)O)cc1)c1cccc2[nH]ncc12)c1ccccc1` [Compound 18, (E)-3-(4-((E)-1-(1H-Indazol-4-yl)-2-phenylbut-1-en-1-yl)phenyl)acrylic acid], in test [1], the “MCF7 Viability Assay Max Response” value is reported as “++ (++ = a single % value ≧ 40%)” and the 50% inhibitory concentration (IC50) is at most 100 nM. Besides, the Emax in test [2] is at least 40%.
As to `Cc1cscc1/C(=C(\c1ccc(/C=C/C(=O)O)cc1)c1ccc2scnc2c1)C1CCC1` [Compound 279, (E)-3-(4-((E)-1-(Benzo[d]thiazol-5-yl)-2-cyclobutyl-2-(4-methylthiophen-3-yl)vinyl)phenyl)acrylic acid], in test [1], the “MCF7 Viability Assay Max Response” value is given as “++ (++ = a single % value ≧ 40%)” and the IC50 is at most 100 nM. Moreover, in test [2], the Emax was at least 40% and the DC50 is at most 100 nM.
For the compound `CC/C(=C(/c1ccc(/C=C/C(=O)O)cc1)c1ccc2nccnc2c1)c1ccccc1` [Compound 124, (E)-3-(4-((E)-2-Phenyl-1-(quinoxalin-6-yl)but-1-en-1-yl)phenyl)acrylic acid], in test [1], the “MCF7 Viability Assay Max Response” value is given as “+ (+ = a single % value < 40%)” and the IC50 is over 100 nM. In addition, in test [2], the Emax was at least 40% and the DC50 was over 100 nM.
Turning to `CC/C(=C(/c1ccc(/C=C/C(=O)O)cc1)c1ccc2[nH]ncc2c1)c1ccc(-c2cnccn2)cc1` [Compound 389, (E)-3-(4-((E)-1-(1H-Indazol-5-yl)-2-(4-(pyrazin-2-yl)phenyl)but-1-en-1-yl)phenyl)acrylic acid], in test [1], the “MCF7 Viability Assay Max Response” value is “++ (++ = a single % value ≧ 40%)” and the concentration for half-maximal inhibition (IC50) was over 100 nM. Also, in test [2], the Emax was at least 40% and the DC50 was at most 100 nM.
In the case of `CC/C(=C(/c1ccc(/C=C/C(=O)NO)cc1)c1ccc2[nH]ncc2c1)c1ccccc1` [Compound 418, (E)-3-(4-((E)-1-(1H-Indazol-5-yl)-2-phenylbut-1-en-1-yl)phenyl)-N-hydroxyacrylamide], in test [1], the “MCF7 Viability Assay Max Response” value was “++ (++ = a single % value ≧ 40%)” and the IC50 is at most 100 nM. For the same compound, in test [2], the Emax is at least 40% and the DC50 is at most 100 nM.
Turning to `CC/C(=C(/c1ccc(/C=C/C(=O)O)cc1)c1cc2ccccc2s1)c1ccccc1` [Compound 142, (E)-3-(4-((E)-1-(Benzo[b]thiophen-2-yl)-2-phenylbut-1-en-1-yl)phenyl)acrylic acid], in test [1], the “MCF7 Viability Assay Max Response” value is on record as “++ (++ = a single % value ≧ 40%)” and the half-inhibitory concentration (IC50) was at most 100 nM. Also, in test [2], the Emax is at least 40% and the DC50 was at most 100 nM.
As for `CC/C(=C(/c1ccc(OC[C@H](C)N2CC[C@@H](C)C2)cc1)c1ccc2[nH]ncc2c1)c1ccccc1Cl` [Compound 330, 5-((E)-2-(2-Chlorophenyl)-1-(4-((S)-2-((R)-3-methylpyrrolidin-1-yl)propoxy)phenyl)but-1-en-1-yl)-1H-indazole], in test [1], the “MCF7 Viability Assay Max Response” value is given as “++ (++ = a single % value ≧ 40%)” and the half-inhibitory concentration (IC50) was at most 100 nM. For the same compound, in test [2], the Emax was at least 40% and the DC50 was at most 100 nM.
Consider `CC/C(=C(/c1ccc(/C=C/C(=O)O)cc1)c1ccc2[nH]ncc2c1)c1ccc(Oc2ccccc2)cc1Cl` [Compound 291, (E)-3-(4-((E)-2-(2-Chloro-4-phenoxyphenyl)-1-(1H-indazol-5-yl)but-1-en-1-yl)phenyl)acrylic acid], for which, in test [1], the “MCF7 Viability Assay Max Response” value is listed as “++ (++ = a single % value ≧ 40%)” and the IC50 was at most 100 nM. In test [2], the Emax was at least 40% and the DC50 is at most 100 nM.
For `CC/C(=C(/c1ccc(/C=C/C(=O)O)cc1)c1ccc2[nH]ncc2c1F)c1ccc(Oc2ncccn2)cc1` [Compound 160, (E)-3-(4-((E)-1-(4-Fluoro-1H-indazol-5-yl)-2-(4-(pyrimidin-2-yloxy)phenyl)but-1-en-1-yl)phenyl)acrylic acid], in test [1], the “MCF7 Viability Assay Max Response” value is “++ (++ = a single % value ≧ 40%)” and the IC50 is at most 100 nM. Also, in test [2], the Emax is at least 40% and the DC50 was at most 100 nM.
As for `CNC(=O)/C=C/c1ccc(/C(=C(\c2ccccc2)C2CCC2)c2ccc3[nH]ncc3c2)cc1` [Compound 412, (E)-3-(4-((E)-2-Cyclobutyl-1-(1H-indazol-5-yl)-2-phenylvinyl)phenyl)-N-methylacrylamide], in test [1], the “MCF7 Viability Assay Max Response” value is “++ (++ = a single % value ≧ 40%)” and the IC50 is at most 100 nM. Further, in test [2], the Emax was at least 40% and the DC50 is at most 100 nM.
`CC/C(=C(/c1ccc(/C=C/C(=O)O)cc1)c1ccc2[nH]ncc2c1)c1ccc(F)c(Oc2ccccc2)c1` [Compound 294, (E)-3-(4-((E)-2-(4-Fluoro-3-phenoxyphenyl)-1-(1H-indazol-5-yl)but-1-en-1-yl)phenyl)acrylic acid]: in test [1], the “MCF7 Viability Assay Max Response” value was “++ (++ = a single % value ≧ 40%)” and the IC50 was at most 100 nM. In addition, in test [2], the Emax is at least 40% and the DC50 was at most 100 nM.
Consider `CC/C(=C(/c1ccc(/C=C/C(=O)O)cc1)c1ccc2[nH]ncc2c1)c1ccc(OCCCCC(=O)O)cc1` [Compound 354, 5-(4-((E)-1-(4-((E)-2-Carboxyvinyl)phenyl)-1-(1H-indazol-5-yl)but-1-en-2-yl)phenoxy)pentanoic acid], for which, in test [1], the “MCF7 Viability Assay Max Response” value is reported as “+ (+ = a single % value < 40%)” and the IC50 is over 100 nM. Further, in test [2], the Emax was at least 40% and the DC50 is over 100 nM.
For the compound `CC/C(=C(/c1ccc(/C=C/C(=O)O)cc1)c1ccc2[nH]ncc2c1)c1cccc(Oc2ccccn2)c1` [Compound 362, (E)-3-(4-((E)-1-(1H-Indazol-5-yl)-2-(3-(pyridin-2-yloxy)phenyl)but-1-en-1-yl)phenyl)acrylic acid], in test [1], the “MCF7 Viability Assay Max Response” value was “++ (++ = a single % value ≧ 40%)” and the half-inhibitory concentration (IC50) was at most 100 nM. In test [2], the Emax was at least 40% and the DC50 is at most 100 nM.
As to `CC/C(=C(/c1ccc(/C=C/C(=O)O)cc1)c1ccc2c(c1)CNC2=O)c1ccccc1` [Compound 110, (E)-3-(4-((E)-1-(1-Oxoisoindolin-5-yl)-2-phenylbut-1-en-1-yl)phenyl)acrylic acid], in test [1], the “MCF7 Viability Assay Max Response” value was “++ (++ = a single % value ≧ 40%)” and the IC50 was at most 100 nM. Further, in test [2], the Emax was at least 40% and the DC50 is at most 100 nM.
